Values quoted from earlier work as cited in patent US20240342171A1, “DISCOVERY OF A F-ATP SYNTHASE INHIBITOR FOR THE TREATMENT OF MYCOBACTERIUM ABSCESSUS DISEASES” (priority 2021, published 2024).
In brackets after ≈: the same amount, converted by molar mass.

Assays:
M. abscessus = conditions: for mode of action against M. abscessus: background statement; for MIC of clinically used anti-M. abscessus drugs: Brown-Elliott et al. 2016
[1] = Hotra et al. 2020
[2] = mouse liver microsomes; Hotra et al. 2020

In the case of `COc1nc2ccc(Br)cc2cc1[C@@H](c1ccccc1)[C@@](O)(CCN(C)C)c1cccc2ccccc12` [BDQ, bedaquiline], the “mode of action against M. abscessus” value (M. abscessus) is given as “mostly bacteriostatic”.
In the case of `CC(C)/N=c1\cc2n(-c3ccc(Cl)cc3)c3ccccc3nc-2cc1Nc1ccc(Cl)cc1` [CFZ, clofazimine], the MIC50 (M. abscessus; Ferro et al. 2016) is given as 6.8 µM (≈ 3.22 µg/mL) and the “mode of action against M. abscessus” value (M. abscessus) is given as “mostly bacteriostatic”.
For `CCNc1cc(C)nc(Nc2ccc(NC(=O)c3cccc(Br)c3)cc2)n1` [GaMF1], the “c log P” value [1] is listed as 4.37 and the metabolic stability [2] is listed as “good metabolic stability”.
For `COc1cc([C@](O)(CCN(C)C)[C@@H](c2cc3cc(Br)ccc3nc2OC)c2cc(OC)nc(OC)c2OC)cc(OC)n1` [TBAJ876], the “mode of action against M. abscessus” value (M. abscessus) is listed as “mostly bacteriostatic”.
For `NCC[C@H](O)C(=O)N[C@@H]1C[C@H](N)[C@@H](O[C@H]2O[C@H](CN)[C@@H](O)[C@H](O)[C@H]2O)[C@H](O)[C@H]1O[C@H]1O[C@H](CO)[C@@H](O)[C@H](N)[C@H]1O` [amikacin], the “MIC of clinically used anti-M. abscessus drugs” value (M. abscessus; Ferro et al. 2016) is listed as 55 µM.
In the case of `CO[C@@]1(NC(=O)Cc2cccs2)C(=O)N2C(C(=O)O)=C(COC(N)=O)CS[C@@H]21` [cefocetin], the “MIC50 of first line drugs” value (M. abscessus; […]) is given as 43 µM.
For `CO[C@@]1(NC(=O)Cc2cccs2)C(=O)N2C(C(=O)O)=C(COC(N)=O)CS[C@@H]21` [cefoxitin], the “MIC of clinically used anti-M. abscessus drugs” value (M. abscessus; Ferro et al. 2016) is given as 38 µM.
For `CO[C@H]1/C=C/O[C@@]2(C)Oc3c(C)c(O)c4c(c3C2=O)C2=NC3(CCN(CC(C)C)CC3)NC2=C(NC(=O)/C(C)=C\C=C\[C@H](C)[C@H](O)[C@@H](C)[C@@H](O)[C@@H](C)[C@H](OC(C)=O)[C@@H]1C)C4=O` [rifabutin], the MIC (M. abscessus) is given as 1 to 4 µM.
